Experimental data published in patent US20260130395A1, “Water Dispersible Botanical Compositions” (Aquila Black Limited, priority 2021, published 2026).

Assay: Stability of cannabinoid compounds and Vitamin E components in Beverage 2 (AB Red) by LCMSMS
Type: physicochemical

**Q.** What does the source list for `C=C(C)[C@@H]1CCC(C)=C[C@H]1c1c(O)cc(CCCCC)c(C(=O)O)c1O` [CBDA, cannabidiolic acid]?
**A.** Stability of Plant-Derived Cannabinoid Compounds in AB Red (stored at 8° C., 29 days): 1.66 µg/mL; Stability of Plant-Derived Cannabinoid Compounds in AB Red (stored at 8° C., 30 days): 1.70 µg/mL; Stability of Plant-Derived Cannabinoid Compounds in AB Red (stored at 8° C., 60 days): 1.66 µg/mL; Stability of Plant-Derived Cannabinoid Compounds in AB Red (stored at 8° C., 90 days): 1.68 µg/mL; Stability of Plant-Derived Cannabinoid Compounds in AB Red (stored at 8° C., 120 days): 1.65 µg/mL; Stability of Plant-Derived Cannabinoid Compounds in AB Red (stored at 8° C., 150 days): 1.66 µg/mL; Stability of Plant-Derived Cannabinoid Compounds in AB Red (stored at 8° C., 180 days): 1.60 µg/mL; Stability of Plant-Derived Cannabinoid Compounds in AB Red (stored at 8° C., 210 days): 1.65 µg/mL; Stability of Plant-Derived Cannabinoid Compounds in AB Red (stored at 8° C., 240 days): 1.66 µg/mL; Stability of Plant-Derived Cannabinoid Compounds in AB Red (stored at 8° C., 270 days): 1.63 µg/mL; Stability of Plant-Derived Cannabinoid Compounds in AB Red (stored at 8° C., 300 days): 1.65 µg/mL; Stability of Plant-Derived Cannabinoid Compounds in AB Red (stored at 8° C., 330 days): 1.60 µg/mL; Stability of Plant-Derived Cannabinoid Compounds in AB Red (stored at 8° C., 360 days): 1.62 µg/mL; Stability of Plant-Derived Cannabinoid Compounds in AB Red (stored at 8° C., 390 days): 1.63 µg/mL; Stability of Plant-Derived Cannabinoid Compounds in AB Red (stored at 8° C., 420 days): 1.63 µg/mL; Stability of Plant-Derived Cannabinoid Compounds in AB Red (stored at 8° C., 450 days): 1.63 µg/mL; Stability of Plant-Derived Cannabinoid Compounds in AB Red (stored at 8° C., 480 days): 1.60 µg/mL; Stability of Plant-Derived Cannabinoid Compounds in AB Red (stored at 8° C., 510 days): 1.55 µg/mL; Stability of Plant-Derived Cannabinoid Compounds in AB Red (stored at 8° C., 540 days): 1.55 µg/mL; Stability of Plant-Derived Cannabinoid Compounds in AB Red (stored at 8° C., 570 days): 1.54 µg/mL; Stability of Plant-Derived Cannabinoid Compounds in AB Red (stored at 21-25° C., 0 days): 1.68 µg/mL; Stability of Plant-Derived Cannabinoid Compounds in AB Red (stored at 21-25° C., 1 days): 1.70 µg/mL; Stability of Plant-Derived Cannabinoid Compounds in AB Red (stored at 21-25° C., 2 days): 1.65 µg/mL; Stability of Plant-Derived Cannabinoid Compounds in AB Red (stored at 21-25° C., 3 days): 1.64 µg/mL; Stability of Plant-Derived Cannabinoid Compounds in AB Red (stored at 21-25° C., 5 days): 1.69 µg/mL; Stability of Plant-Derived Cannabinoid Compounds in AB Red (stored at 21-25° C., 8 days): 1.64 µg/mL; Stability of Plant-Derived Cannabinoid Compounds in AB Red (stored at 21-25° C., 9 days): 1.63 µg/mL; Stability of Plant-Derived Cannabinoid Compounds in AB Red (stored at 21-25° C., 10 days): 1.61 µg/mL; Stability of Plant-Derived Cannabinoid Compounds in AB Red (stored at 21-25° C., 11 days): 1.64 µg/mL; Stability of Plant-Derived Cannabinoid Compounds in AB Red (stored at 21-25° C., 12 days): 1.70 µg/mL; Stability of Plant-Derived Cannabinoid Compounds in AB Red (stored at 21-25° C., 15 days): 1.64 µg/mL; Stability of Plant-Derived Cannabinoid Compounds in AB Red (stored at 21-25° C., 16 days): 1.67 µg/mL; Stability of Plant-Derived Cannabinoid Compounds in AB Red (stored at 21-25° C., 17 days): 1.63 µg/mL; Stability of Plant-Derived Cannabinoid Compounds in AB Red (stored at 21-25° C., 18 days): 1.65 µg/mL; Stability of Plant-Derived Cannabinoid Compounds in AB Red (stored at 21-25° C., 19 days): 1.70 µg/mL; Stability of Plant-Derived Cannabinoid Compounds in AB Red (stored at 21-25° C., 22 days): 1.66 µg/mL; Stability of Plant-Derived Cannabinoid Compounds in AB Red (stored at 21-25° C., 23 days): 1.63 µg/mL; Stability of Plant-Derived Cannabinoid Compounds in AB Red (stored at 21-25° C., 24 days): 1.65 µg/mL; Stability of Plant-Derived Cannabinoid Compounds in AB Red (stored at 21-25° C., 25 days): 1.64 µg/mL; Stability of Plant-Derived Cannabinoid Compounds in AB Red (stored at 21-25° C., 26 days): 1.67 µg/mL; Stability of Plant-Derived Cannabinoid Compounds in AB Red (stored at 21-25° C., 29 days): 1.62 µg/mL; Stability of Plant-Derived Cannabinoid Compounds in AB Red (stored at 21-25° C., 30 days): 1.68 µg/mL; Stability of Plant-Derived Cannabinoid Compounds in AB Red (stored at 21-25° C., 60 days): 1.59 µg/mL; Stability of Plant-Derived Cannabinoid Compounds in AB Red (stored at 21-25° C., 90 days): 1.60 µg/mL; Stability of Plant-Derived Cannabinoid Compounds in AB Red (stored at 21-25° C., 120 days): 1.64 µg/mL; Stability of Plant-Derived Cannabinoid Compounds in AB Red (stored at 21-25° C., 150 days): 1.58 µg/mL; Stability of Plant-Derived Cannabinoid Compounds in AB Red (stored at 21-25° C., 180 days): 1.64 µg/mL; Stability of Plant-Derived Cannabinoid Compounds in AB Red (stored at 21-25° C., 210 days): 1.64 µg/mL; Stability of Plant-Derived Cannabinoid Compounds in AB Red (stored at 21-25° C., 240 days): 1.60 µg/mL; Stability of Plant-Derived Cannabinoid Compounds in AB Red (stored at 21-25° C., 270 days): 1.65 µg/mL; Stability of Plant-Derived Cannabinoid Compounds in AB Red (stored at 21-25° C., 300 days): 1.58 µg/mL; Stability of Plant-Derived Cannabinoid Compounds in AB Red (stored at 21-25° C., 330 days): 1.65 µg/mL; Stability of Plant-Derived Cannabinoid Compounds in AB Red (stored at 21-25° C., 360 days): 1.58 µg/mL; Stability of Plant-Derived Cannabinoid Compounds in AB Red (stored at 21-25° C., 390 days): 1.61 µg/mL; Stability of Plant-Derived Cannabinoid Compounds in AB Red (stored at 21-25° C., 420 days): 1.59 µg/mL; Stability of Plant-Derived Cannabinoid Compounds in AB Red (stored at 21-25° C., 450 days): 1.57 µg/mL; Stability of Plant-Derived Cannabinoid Compounds in AB Red (stored at 21-25° C., 480 days): 1.57 µg/mL; Stability of Plant-Derived Cannabinoid Compounds in AB Red (stored at 21-25° C., 510 days): 1.56 µg/mL; Stability of Plant-Derived Cannabinoid Compounds in AB Red (stored at 21-25° C., 540 days): 1.57 µg/mL; Stability of Plant-Derived Cannabinoid Compounds in AB Red (stored at 21-25° C., 570 days): 1.54 µg/mL
